Values after ≈ are worked out from the molar mass of the structure shown.
Tests used:
E. coli ATCC 25922 = assay: MIC by broth microdilution, E. coli ATCC 25922, no FBS; type: cell-based; conditions: Escherichia coli, ATCC25922, 35° C., 18-24 h
Description: (§1) Minimal inhibitory concentrations (MIC) were determined by the broth microdilution method in accordance with the Clinical and Laboratory Standards Institute (CLSI) guidelines. In brief, organism suspensions were adjusted to a 0.5 McFarland standard to yield a final inoculum between 3×10^5 and 7×10^5 colony-forming units (CFU)/mL. Drug dilutions and inocula were made in sterile, cation adjusted Mueller-Hinton Broth (Beckton Dickinson). An inoculum volume of 100 μL was added to wells containing 100 μL of broth with 2-fold serial dilutions of drug. All inoculated microdilution trays were incubated in ambient air at 35° C. for 18-24 h. […] Performance of the assay was monitored by the use of laboratory quality-control strains and levofloxacin, a compound with a defined MIC spectrum, in accordance with CLSI guidelines.

E. coli BW25113 = assay: MIC by broth microdilution, E. coli BW25113, no FBS; type: cell-based; conditions: Escherichia coli, 35° C., 18-24 h
Description: as §1

E. coli imp mutant = assay: MIC by broth microdilution, E. coli imp mutant; type: cell-based; conditions: Escherichia coli, read-out: MIC E. coli imp mutant
Description: as §1

[1] = test system: E. coli delta to IC mutant; assay: MIC by broth microdilution, E. coli delta tolC mutant; type: cell-based; conditions: Escherichia coli, read-out: MIC E. coli delta to IC mutant
Description: as §1

S. aureus ATCC 29213 = assay: MIC by broth microdilution, S. aureus ATCC 29213; type: cell-based; conditions: Staphylococcus aureus, ATCC29213; 35° C., 18-24 h
Description: as §1

P. aeruginosa 209 = assay: MIC by broth microdilution, P. aeruginosa 209; type: cell-based; conditions: Pseudomonas aeruginosa, 35° C., 18-24 h
Description: as §1

[2] = test system: P. aeruginosa 210 delta mexAB-OprM; assay: MIC by broth microdilution, P. aeruginosa 210 delta mexAB-OprM; type: cell-based; conditions: Pseudomonas aeruginosa, read-out: MIC P. aeruginosa 210 delta mexAB-OprM
Description: as §1

[3] = biological target: Klebsiella pneumoniae LpxC (Klebsiella pneumoniae subsp. pneumoniae (strain ATCC 700721 / MGH 78578), UniProt A6T4N9); assay: Inhibition Assay against Klebsiella pneumoniae LpxC (LC-MS/MS); type: biochemical; conditions: 0.2 nM Kpn LpxC, 22° C., 60 minutes
Description: LpxC inhibition assays were performed using liquid chromatography with tandem mass spectrometry. Assays were performed, in duplicate, in opaque, 96-well microplates in a total assay volume of 50 μL. The incubation mixture contained: LpxC (0.2 nM Kpn), 0.8 μM UDP-3-O—[(R)-3-hydroxymyristoyl]-N-acetyl-glucosamine, 40 mM Bis-Tris/HCl buffer (pH 5.9), 5 mM sodium phosphate buffer (NaH2PO4/Na2HPO4, pH 7.0), 1 mM DTT, 0.1% (w/v) fatty-acid free BSA, 10% DMSO (v/v, with or without compound). The reactions were incubated at 22° C. for 60 minutes (with mild shaking), then terminated by the addition of 25 μL 0.25 N HCl. Samples were analyzed using a LC-MS system to measure native LpxC substrate and reaction product. IC50 analysis was done using GeneData Screener and a four parameter variable slope normalized to controls. Test compounds were prepared as 8-point dose-response curves (factor dilution 2) in triplicate, starting at 1 μM final concentration. Each assay plate included 6 wells used for the Z′ factor calculation, 3 as a positive control for the assay and 3 as a negative control. The robustness was calculated as the median Z′ factor for 5 plates.

O=C(c1ccc(C#CC#Cc2ccc(NCc3nc[nH]c(=O)c3O)cc2)cc1)N1CCOCC1 [Compound 97]
MIC (E. coli ATCC 25922): 1 to 8 µg/mL (≈ 2.2 to 17.6 µM)
MIC (E. coli BW25113): < 1 µg/mL
MIC (E. coli imp mutant): < 1 µg/mL
MIC [1]: < 1 µg/mL
MIC (S. aureus ATCC 29213): > 32 µg/mL
MIC (P. aeruginosa 209): > 32 µg/mL
MIC [2]: > 32 µg/mL
IC50 [3]: 10 to 100 nM

O=c1[nH]cnc(CNc2ccc(C#Cc3ccc(CN4CCOCC4)cc3)cc2)c1O [Compound 98]
MIC (E. coli ATCC 25922): 1 to 8 µg/mL (≈ 2.4 to 19.2 µM)
MIC (E. coli BW25113): < 1 µg/mL
MIC (E. coli imp mutant): 1 to 8 µg/mL (≈ 2.4 to 19.2 µM)
MIC [1]: < 1 µg/mL
MIC (S. aureus ATCC 29213): > 32 µg/mL
MIC (P. aeruginosa 209): > 32 µg/mL
MIC [2]: > 32 µg/mL
IC50 [3]: 10 to 100 nM

CN(C)C1CCN(C(=O)c2ccc(C#CC#Cc3ccc(NCc4nc[nH]c(=O)c4O)cc3)cc2)CC1 [Compound 74]
MIC (E. coli ATCC 25922): 8 to 32 µg/mL (≈ 16.1 to 64.6 µM)
MIC (E. coli BW25113): 1 to 8 µg/mL (≈ 2.02 to 16.1 µM)
MIC (E. coli imp mutant): 1 to 8 µg/mL (≈ 2.02 to 16.1 µM)
MIC [1]: < 1 µg/mL
MIC (S. aureus ATCC 29213): > 32 µg/mL
MIC (P. aeruginosa 209): > 32 µg/mL
MIC [2]: > 32 µg/mL

O=C(c1ccc(C#CC#Cc2ccc(NCc3nc[nH]c(=O)c3O)cc2)cc1)N1CCC(N2CCOCC2)CC1 [Compound 78]
MIC (E. coli ATCC 25922): > 32 µg/mL
MIC (E. coli BW25113): 1 to 8 µg/mL (≈ 1.86 to 14.9 µM)
MIC (E. coli imp mutant): < 1 µg/mL
MIC [1]: < 1 µg/mL
MIC (S. aureus ATCC 29213): > 32 µg/mL
MIC (P. aeruginosa 209): > 32 µg/mL
MIC [2]: > 32 µg/mL

O=C(NCCO)c1ccc(C#CC#Cc2ccc(NCc3nc[nH]c(=O)c3O)cc2)cc1 [Compound 88]
MIC (E. coli ATCC 25922): < 1 µg/mL
MIC (E. coli BW25113): < 1 µg/mL
MIC (E. coli imp mutant): < 1 µg/mL
MIC [1]: < 1 µg/mL
MIC (S. aureus ATCC 29213): > 32 µg/mL
MIC (P. aeruginosa 209): > 32 µg/mL
MIC [2]: > 32 µg/mL

Cc1nc(C(=O)O)c(O)c(=O)n1CC(O)c1ccc(-c2ccccc2)cc1 (stereo not drawn) [Compound 83, 1-(2-([1,1′-biphenyl]-4-yl)-2-hydroxyethyl)-5-hydroxy-2-methyl-6-oxo-1,6-dihydro pyrimidine-4-carboxylic acid]
MIC (E. coli ATCC 25922): > 32 µg/mL
MIC (E. coli BW25113): > 32 µg/mL
MIC (E. coli imp mutant): 1 to 8 µg/mL (≈ 2.73 to 21.8 µM)
MIC [1]: 8 to 32 µg/mL (≈ 21.8 to 87.3 µM)
MIC (S. aureus ATCC 29213): > 32 µg/mL
MIC (P. aeruginosa 209): > 32 µg/mL
MIC [2]: > 32 µg/mL

CCOC(=O)c1nc(C)n(CC(=O)c2ccc(-c3ccccc3)cc2)c(=O)c1O [Compound 84, ethyl 1-(2-([1,1′-biphenyl]-4-yl)-2-oxoethyl)-5-hydroxy-2-methyl-6-oxo-1,6-dihydropyrimidine-4-carboxylate]
MIC (E. coli ATCC 25922): > 32 µg/mL
MIC (E. coli BW25113): > 32 µg/mL
MIC (E. coli imp mutant): > 32 µg/mL
MIC [1]: > 32 µg/mL
MIC (S. aureus ATCC 29213): > 32 µg/mL
MIC (P. aeruginosa 209): > 32 µg/mL
MIC [2]: > 32 µg/mL

CNC(=O)c1ccc(C#CC#Cc2ccc(NCc3nc[nH]c(=O)c3O)cc2)cc1 [Compound 72, 4-((4-(((5-hydroxy-6-oxo-1,6-dihydropyrimidin-4-yl)methyl)amino)phenyl)buta-1,3-diyn-1-yl)-N-methylbenzamide]
MIC (E. coli ATCC 25922): < 1 µg/mL
MIC (E. coli BW25113): < 1 µg/mL
MIC (E. coli imp mutant): < 1 µg/mL
MIC [1]: < 1 µg/mL
MIC (S. aureus ATCC 29213): > 32 µg/mL
MIC (P. aeruginosa 209): > 32 µg/mL
MIC [2]: > 32 µg/mL

Cc1nc(C(=O)O)c(O)c(=O)n1C/C(=N/O)c1ccc(-c2ccccc2)cc1 [Compound 95, (E)-1-(2-([1,1′-biphenyl]-4-yl)-2-(hydroxyimino)ethyl)-5-hydroxy-2-methyl-6-oxo-1,6-dihydropyrimidine-4-carboxylic acid]
MIC (E. coli ATCC 25922): > 32 µg/mL
MIC (E. coli BW25113): > 32 µg/mL
MIC (E. coli imp mutant): 8 to 32 µg/mL (≈ 21.1 to 84.3 µM)
MIC [1]: > 32 µg/mL
MIC (S. aureus ATCC 29213): > 32 µg/mL
MIC (P. aeruginosa 209): > 32 µg/mL
MIC [2]: > 32 µg/mL

CS(=O)(=O)Cc1nc(COc2ccc(C#CC#Cc3ccccc3)cc2)[nH]c(=O)c1O [Compound 70, 5-hydroxy-6-((methylsulfonyl)methyl)-2-((4-(phenylbuta-1,3-diyn-1-yl)phenoxy)methyl)pyrimidin-4(3H)-one]
MIC (E. coli ATCC 25922): > 32 µg/mL
MIC (E. coli BW25113): > 32 µg/mL
MIC (E. coli imp mutant): 1 to 8 µg/mL (≈ 2.3 to 18.4 µM)
MIC [1]: 8 to 32 µg/mL (≈ 18.4 to 73.7 µM)
MIC (S. aureus ATCC 29213): 8 to 32 µg/mL (≈ 18.4 to 73.7 µM)
MIC (P. aeruginosa 209): > 32 µg/mL
MIC [2]: > 32 µg/mL

From patent US10875832B2, “Substituted pyrimidines for treating bacterial infections” (FORGE THERAPEUTICS, INC., priority 2015, dated 2020)
